melting point | SMILES
70 to 74 °C | NCCc1cccc(Cn2ccc(OCc3ccc(F)cc3F)c(Br)c2=O)c1.O=C(O)C(F)(F)F
138.1 to 139.2 °C | Cl.O=c1c(Br)c(OCc2ccccc2)ccn1CC1CCCNC1 (stereo not drawn)
127 to 139 °C | NCc1cccc(Cn2ccc(OCc3ccc(F)cc3)c(Br)c2=O)c1.O=C(O)C(F)(F)F
80 to 84 °C | NCc1cccc(Cn2ccc(OCc3ccc(F)cc3F)c(Br)c2=O)c1.O=C(O)C(F)(F)F
235 to 238 °C | O=C(O)C(F)(F)F.O=c1c(Cl)c(OCc2ccc(F)cc2F)ccn1Cc1cccc2cnccc12
150.4 to 151.2 °C | Cc1ccc(Cn2ccc(OCc3ccccc3)c(Br)c2=O)cc1 [Example 2, 4-(benzyloxy)-3-bromo-1-(4-methylbenzyl)pyridin-2(1H)-one]
105.3 to 105.6 °C | Br.Cn1ccc(OCc2ccccc2)c(Br)c1=O [Example 22, 4-(benzyloxy)-3-bromo-1-methylpyridin-2(1H)-one Hydrobromide]
210.2 to 212.2 °C | NC(=NO)c1ccc(Cn2ccc(OCc3ccccc3)c(Br)c2=O)cc1 [Example 24, 4-{[4-(benzyloxy)-3-bromo-2-oxopyridin-1(2H)-yl]methyl}-N′-hydroxybenzenecarboximidamide]
207.9 °C | Cl.O=c1c(Br)c(OCc2ccccc2)ccn1CC1CCNCC1 [Example 25, 4-(benzyloxy)-3-bromo-1-(piperidin-4-ylmethyl)pyridin-2(1H)-one Hydrochloride]
134 to 134.3 °C | O=c1c(Br)c(OCc2ccccc2)ccn1CCc1ccsc1 [Example 29, 4-(benzyloxy)-3-bromo-1-(2-thien-3-ylethyl)pyridin-2(1H)-one]
128 to 129.5 °C | O=c1c(Br)c(OCc2ccccc2)ccn1CCc1cccs1 [Example 30, 4-(benzyloxy)-3-bromo-1-(2-thien-2-ylethyl)pyridin-2(1H)-one]
151.6 to 152 °C | O=c1cc(OCc2c(Cl)cccc2Cl)ccn1Cc1ccccc1 [Example 40, 1-benzyl-4-[2,6-(dichlorobenzyl)oxy]pyridin-2(1H)-one]
124.6 to 125 °C | O=c1cc(OCc2ccccc2Cl)ccn1Cc1ccccc1 [Example 42, 1-benzyl-4-[(2-chlorobenzyl)oxy]pyridin-2(1H)-one]
143.3 to 145.5 °C | O=c1c(Br)c(OCc2ccccc2Cl)ccn1Cc1ccccc1 [Example 43, 1-benzyl-3-bromo-4-[(2-chlorobenzyl)oxy]pyridin-2(1H)-one]
149 to 149.7 °C | Cc1ccc(COc2ccn(Cc3ccccc3)c(=O)c2Br)cc1 [Example 44, 1-benzyl-3-bromo-4-[(4-methylbenzyl)oxy]pyridin-2(1H)-one]
95.5 to 95.7 °C | O=c1cc(OCc2cccc(Cl)c2)ccn1Cc1ccccc1 [Example 45, 1-benzyl-4-[(3-chlorobenzyl)oxy]pyridin-2(1H)-one]
180.6 to 182.1 °C | O=c1c(Br)c(SCc2ccccc2)ccn1Cc1ccccc1 [Example 46, 1-benzyl-4-[benzylthio]-3-bromopyridin-2(1H)-one]
133.2 to 133.5 °C | O=c1c(Br)c(OCc2ccccc2C(F)(F)F)ccn1Cc1ccccc1 [Example 47, 1-benzyl-3-bromo-4-{[2-(trifluoromethyl)benzyl]oxy}pyridin-2(1H)-one]
139 to 141 °C | O=c1c(Br)c(OCc2ccc(F)cc2)ccn1CC1CC1 [Example 59, 3-bromo-1-cyclopropylmethyl-4-(4-fluorobenzyloxy)-1H-pyridin-2-one]
136 to 138 °C | CC(C)(C)OC(=O)NCc1cccc(Cn2ccc(OCc3ccc(F)cc3)c(Br)c2=O)c1 [Example 70, {3-[3-bromo-4-(4-fluorobenzyloxy)-2-oxo-2H-pyridin-1-ylmethyl]benzyl}carbamic Acid Tert-Butyl Ester]
161 to 165 °C | COC(=O)c1ccccc1Cn1ccc(OCc2ccc(F)cc2)c(Br)c1=O [Example 72, methyl 2-[3-Bromo-4-(4-fluorobenzyloxy)-2-oxo-2H-pyridin-1-ylmethyl]benzoate]
111 to 113 °C | CN(C)Cc1ccc(Cn2ccc(OCc3ccc(F)cc3F)c(Br)c2=O)cc1 [Example 74, 3-bromo-4-(2,4-difluorobenzyloxy)-1-[(4-dimethylaminomethyl)benzyl]-1H-pyridin-2-one]
109 to 110 °C | CC(C)NCc1cccc(Cn2ccc(OCc3ccc(F)cc3F)c(Br)c2=O)c1 [Example 75, 3-bromo-4-(2,4-difluorobenzyloxy)-1-[3-(isopropylaminomethyl)benzyl]-1H-pyridin-2-one]

melting point | SMILES
103 to 107 °C | CN(C)Cc1cccc(Cn2ccc(OCc3ccc(F)cc3F)c(Br)c2=O)c1 [Example 76, 3-bromo-4-(2,4-difluorobenzyloxy)-1-[(3-dimethylaminomethyl)benzyl]-1H-pyridin-2-one]
107 to 111 °C | CNCc1cccc(Cn2ccc(OCc3ccc(F)cc3F)c(Br)c2=O)c1 [Example 77, 3-Bromo-4-(2,4-difluorobenzyloxy)-1-[(3-methylaminomethyl)benzyl]-1H-pyridin-2-one]
80 to 84 °C | CC(C)(C)OC(=O)NCc1cccc(Cn2ccc(OCc3ccc(F)cc3F)c(Br)c2=O)c1 [Example 78, {3-[3-bromo-4-(2,4-difluorobenzyloxy)-2-oxo-2H-pyridin-1-ylmethyl]benzyl}carbamic Acid Tert-Butyl Ester]
146 to 151 °C | CC(C)NCc1ccc(Cn2ccc(OCc3ccc(F)cc3F)c(Cl)c2=O)cc1 [Example 80, 3-chloro-4-(2,4-difluorobenzyloxy)-1-[4-(isopropylaminomethyl)benzyl]-1H-pyridin-2-one]
155 to 157 °C | CS(=O)(=O)c1cccc(Cn2ccc(OCc3ccc(F)cc3F)c(Cl)c2=O)c1 [Example 81, 3-chloro-4-(2,4-difluorobenzyloxy)-1-[(3-methanesulfonyl)benzyl]-1H-pyridin-2-one]
223 to 225 °C | CS(=O)(=O)c1ccc(Cn2ccc(OCc3ccc(F)cc3F)c(Cl)c2=O)cc1 [Example 82, 3-chloro-4-(2,4-difluorobenzyloxy)-1-[(4-methanesulfonyl)benzyl]-1H-pyridin-2-one]
235 to 238 °C | NC(=O)c1ccc(Cn2ccc(OCc3ccc(F)cc3F)c(Cl)c2=O)cc1 [Example 83, 4-[3-chloro-4-(2,4-difluorobenzyloxy)-2-oxo-2H-pyridin-1-ylmethyl]benzamide]
180 to 184 °C | O=c1c(Cl)c(OCc2ccc(F)cc2F)ccn1Cc1cccc2c1CCNC2 [Example 85, 3-chloro-4-(2,4-difluorobenzyloxy)-1-(1,2,3,4-tetrahydroisoquinolin-5-ylmethyl)-1H-pyridin-2-one]
152 to 153 °C | O=c1c(Cl)c(OCc2ccc(F)cc2F)ccn1Cc1ccc2[nH]ccc2c1 [Example 86, 3-chloro-4-(2,4-difluorobenzyloxy)-1-(1H-indol-5-ylmethyl)-1H-pyridin-2-one]
137 to 139 °C | O=c1c(Cl)c(OCc2ccc(F)cc2F)ccn1Cc1ccc2c(c1)CCN2 [Example 88, 3-chloro-4-(2,4-difluorobenzyloxy)-1-(2,3-dihydro-1H-indol-5-ylmethyl)-1H-pyridin-2-one]
120 to 121 °C | N#CCc1cccc(Cn2ccc(OCc3ccc(F)cc3F)c(Br)c2=O)c1 [Example 97, {3-[3-bromo-4-(2,4-difluorobenzyloxy)-2-oxo-2H-pyridin-1-ylmethyl]-phenyl}acetonitrile]
194 to 197 °C | N#Cc1ccccc1Cn1ccc(OCc2ccc(F)cc2F)c(Br)c1=O [Example 98, 2-[3-bromo-4-(2,4-difluorobenzyloxy)-2-oxo-2H-pyridin-1-ylmethyl]benzonitrile]
115 to 117 °C | COC(=O)c1cccc(Cn2ccc(OCc3ccc(F)cc3F)c(Br)c2=O)c1 [Example 100, Methyl 3-[3-Bromo-4-(2,4-difluorobenzyloxy)-2-oxo-2H-pyridin-1-ylmethyl]benzoate]
136 to 139 °C | COC(=O)c1ccc(Cn2ccc(OCc3ccc(F)cc3F)c(Br)c2=O)cc1 [Example 101, Methyl 4-[3-Bromo-4-(2,4-difluorobenzyloxy)-2-oxo-2H-pyridin-1-ylmethyl]-benzoate]
198 to 201 °C | NC(=O)c1cccc(Cn2ccc(OCc3ccc(F)cc3F)c(Br)c2=O)c1 [Example 102, 3-[3-bromo-4-(2,4-difluorobenzyloxy)-2-oxo-2H-pyridin-1-ylmethyl]benzamide]
235 to 238 °C | NC(=O)c1ccc(Cn2ccc(OCc3ccc(F)cc3F)c(Br)c2=O)cc1 [Example 103, 4-[3-bromo-4-(2,4-difluorobenzyloxy)-2-oxo-2H-pyridin-1-ylmethyl]benzamide]
160 to 163 °C | NCc1cccc(Cn2ccc(OCc3ccc(F)cc3F)c(Br)c2=O)c1F [Example 104, 1-(3-aminomethyl-2-fluorobenzyl)-3-bromo-4-(2,4-difluorobenzyloxy)-1H-pyridin-2-one]
171 to 174 °C | COC(=O)c1cccc(Cn2ccc(OCc3ccc(F)cc3F)c(Cl)c2=O)c1F [Example 105, Methyl 3-[3-chloro-4-(2,4-difluorobenzyloxy)-2-oxo-2H-pyridin-1-ylmethyl]-2-fluoro-benzoate]
252 to 254 °C | NC(=O)c1cccc(Cn2ccc(OCc3ccc(F)cc3F)c(Cl)c2=O)c1F [Example 106, 3-[3-chloro-4-(2,4-difluorobenzyloxy)-2-oxo-2H-pyridin-1-ylmethyl]-2-fluoro-benzamide]
176 to 178 °C | O=c1c(Br)c(OCc2ccc(F)c(F)c2F)ccn1Cc1cccc(F)c1 [Example 108, 3-bromo-1-(3-fluorobenzyl)-4-(2,3,4-trifluorobenzyloxy)-1H-pyridin-2-one]
172 to 174 °C | O=c1c(Br)c(OCc2ccc(F)c(F)c2)ccn1Cc1cccc(F)c1 [Example 112, 3-bromo-4-(3,4-difluorobenzyloxy)-1-(3-fluorobenzyl)-1H-pyridin-2-one]
178 to 183 °C | NC(=O)Cc1ccccc1Cn1ccc(OCc2ccc(F)cc2F)c(Br)c1=O [Example 126, 2-{2-[3-Bromo-4-(2,4-difluorobenzyloxy)-2-oxo-2H-pyridin-1-ylmethyl]-phenyl}acetamide]

— patent US20050176775A1, “Substituted pyridinones” (priority 2003, published 2005)
